Assay results published in ChEMBL document CHEMBL5291721, “A preclinical secondary pharmacology resource illuminates target-adverse drug reaction associations of marketed drugs” (Nat Commun, 2023).

Experiments:
[1] = target: T1, Alpha-1A adrenergic receptor (Homo sapiens, UniProt P35348); assay type: functional, cell-based
T1 sequence (P35348 whole entry): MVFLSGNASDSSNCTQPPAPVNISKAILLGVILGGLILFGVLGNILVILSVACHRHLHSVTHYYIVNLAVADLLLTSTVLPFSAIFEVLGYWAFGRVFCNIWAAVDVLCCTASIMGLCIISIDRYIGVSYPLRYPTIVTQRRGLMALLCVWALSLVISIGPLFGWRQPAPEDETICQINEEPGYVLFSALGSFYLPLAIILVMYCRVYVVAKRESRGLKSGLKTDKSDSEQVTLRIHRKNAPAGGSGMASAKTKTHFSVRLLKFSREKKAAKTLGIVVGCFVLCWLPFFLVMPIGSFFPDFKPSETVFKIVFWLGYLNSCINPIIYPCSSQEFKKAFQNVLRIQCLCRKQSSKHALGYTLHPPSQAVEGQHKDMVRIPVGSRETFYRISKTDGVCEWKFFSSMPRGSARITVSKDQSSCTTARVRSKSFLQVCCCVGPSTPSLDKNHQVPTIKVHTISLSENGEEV

[2] = target: T1, Alpha-1A adrenergic receptor
[3] = target: T2, Beta-2 adrenergic receptor (Homo sapiens, UniProt P07550); assay type: functional, cell-based
[4] = target: T2, Beta-2 adrenergic receptor
[5] = target: Voltage-dependent L-type calcium channel subunit alpha-1C (Rattus norvegicus, UniProt P22002); assay type: functional
[6] = target: Neuronal acetylcholine receptor subunit alpha-4 (Homo sapiens, UniProt P43681)
Cannabinoid receptor 1 [7] = target: T3, Cannabinoid receptor 1 (Homo sapiens, UniProt P21554); assay type: functional, cell-based
Cannabinoid receptor 1 [8] = target: T3, Cannabinoid receptor 1
D(1A) dopamine receptor [9] = target: T4, D(1A) dopamine receptor (Homo sapiens, UniProt P21728); assay type: functional, cell-based
D(1A) dopamine receptor [10] = target: T4, D(1A) dopamine receptor; assay type: functional, cell-based; remark: listed apart in the source
[11] = target: Gamma-aminobutyric acid receptor subunit alpha-1/alpha-2/beta-2/gamma-2 (Homo sapiens, UniProt P14867+P18507+P47869+P47870); assay type: functional, cell-based
[12] = target: T5, Gamma-aminobutyric acid receptor subunit alpha-1 (Rattus norvegicus, UniProt P62813)
[13] = target: T5, Gamma-aminobutyric acid receptor subunit alpha-1; assay type: functional
[14] = target: Glutamate receptor ionotropic, NMDA 1 (Rattus norvegicus, UniProt P35439)
Histamine H2 receptor = Histamine H2 receptor (Homo sapiens, UniProt P25021); assay type: functional, cell-based
[15] = target: T6, 5-hydroxytryptamine receptor 1A (Homo sapiens, UniProt P08908); assay type: functional, cell-based
T6 sequence (P08908 whole entry): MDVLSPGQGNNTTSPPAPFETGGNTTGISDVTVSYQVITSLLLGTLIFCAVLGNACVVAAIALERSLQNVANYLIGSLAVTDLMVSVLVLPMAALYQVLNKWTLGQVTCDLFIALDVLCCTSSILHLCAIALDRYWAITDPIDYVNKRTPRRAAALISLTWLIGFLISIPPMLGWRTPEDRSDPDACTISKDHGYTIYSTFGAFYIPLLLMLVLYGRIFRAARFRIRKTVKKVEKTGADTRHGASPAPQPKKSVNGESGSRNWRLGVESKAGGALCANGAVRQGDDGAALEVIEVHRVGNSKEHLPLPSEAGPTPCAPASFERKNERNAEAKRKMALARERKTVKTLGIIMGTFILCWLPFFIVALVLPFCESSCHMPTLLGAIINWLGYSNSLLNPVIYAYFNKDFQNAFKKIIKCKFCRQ

[16] = target: T6, 5-hydroxytryptamine receptor 1A; assay type: functional, cell-based; remark: listed apart in the source
[17] = target: T7, 5-hydroxytryptamine receptor 2B (Homo sapiens, UniProt P41595); assay type: functional, cell-based
[18] = target: T7, 5-hydroxytryptamine receptor 2B; assay type: functional, cell-based; remark: listed apart in the source
[19] = target: T7, 5-hydroxytryptamine receptor 2B
[20] = target: T8, 5-hydroxytryptamine receptor 2C (Homo sapiens, UniProt P28335)
T8 sequence (P28335 whole entry): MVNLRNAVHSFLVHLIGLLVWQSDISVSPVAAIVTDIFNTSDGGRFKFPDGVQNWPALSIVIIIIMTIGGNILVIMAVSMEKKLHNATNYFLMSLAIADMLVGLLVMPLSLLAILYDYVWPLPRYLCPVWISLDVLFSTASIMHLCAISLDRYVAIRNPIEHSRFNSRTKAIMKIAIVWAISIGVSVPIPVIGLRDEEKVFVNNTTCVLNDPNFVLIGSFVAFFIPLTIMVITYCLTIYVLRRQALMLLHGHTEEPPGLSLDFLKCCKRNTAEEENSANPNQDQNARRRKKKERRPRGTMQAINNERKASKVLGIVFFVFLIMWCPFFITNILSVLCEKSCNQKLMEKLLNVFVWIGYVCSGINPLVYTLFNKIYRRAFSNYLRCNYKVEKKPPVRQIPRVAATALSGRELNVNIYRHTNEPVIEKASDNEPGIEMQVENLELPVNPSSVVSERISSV

[21] = target: Delta-type opioid receptor (Homo sapiens, UniProt P41143)
[22] = target: Kappa-type opioid receptor (Homo sapiens, UniProt P41145)
Mu-type opioid receptor [23] = target: T9, Mu-type opioid receptor (Homo sapiens, UniProt P35372); assay: biochemical; assay type: functional
Mu-type opioid receptor [24] = target: T9, Mu-type opioid receptor
[25] = target: T10, Amine oxidase [flavin-containing] A (Homo sapiens, UniProt P21397); assay type: functional
T10 sequence (P21397 whole entry): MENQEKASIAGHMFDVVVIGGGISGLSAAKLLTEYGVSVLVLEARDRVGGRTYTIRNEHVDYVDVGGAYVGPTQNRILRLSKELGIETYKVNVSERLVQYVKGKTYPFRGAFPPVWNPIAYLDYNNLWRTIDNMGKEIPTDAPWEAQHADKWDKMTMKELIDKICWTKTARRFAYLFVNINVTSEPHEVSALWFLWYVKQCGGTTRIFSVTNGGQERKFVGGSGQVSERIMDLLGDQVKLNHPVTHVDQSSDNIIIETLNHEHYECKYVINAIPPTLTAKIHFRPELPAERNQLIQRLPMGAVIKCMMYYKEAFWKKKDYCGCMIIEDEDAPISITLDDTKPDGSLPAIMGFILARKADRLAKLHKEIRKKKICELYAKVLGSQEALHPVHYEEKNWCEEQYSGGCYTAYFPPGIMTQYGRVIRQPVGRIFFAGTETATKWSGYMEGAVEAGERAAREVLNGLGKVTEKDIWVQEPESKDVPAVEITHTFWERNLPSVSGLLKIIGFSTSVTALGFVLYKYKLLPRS

D(3) dopamine receptor = D(3) dopamine receptor (Homo sapiens, UniProt P35462)
[26] = target: T1, Alpha-1A adrenergic receptor; assay type: functional, cell-based; remark: listed apart in the source
Histamine H3 receptor = Histamine H3 receptor (Homo sapiens, UniProt Q9Y5N1)
Also: assay procedure not described here.

T7 sequence (P41595 whole entry): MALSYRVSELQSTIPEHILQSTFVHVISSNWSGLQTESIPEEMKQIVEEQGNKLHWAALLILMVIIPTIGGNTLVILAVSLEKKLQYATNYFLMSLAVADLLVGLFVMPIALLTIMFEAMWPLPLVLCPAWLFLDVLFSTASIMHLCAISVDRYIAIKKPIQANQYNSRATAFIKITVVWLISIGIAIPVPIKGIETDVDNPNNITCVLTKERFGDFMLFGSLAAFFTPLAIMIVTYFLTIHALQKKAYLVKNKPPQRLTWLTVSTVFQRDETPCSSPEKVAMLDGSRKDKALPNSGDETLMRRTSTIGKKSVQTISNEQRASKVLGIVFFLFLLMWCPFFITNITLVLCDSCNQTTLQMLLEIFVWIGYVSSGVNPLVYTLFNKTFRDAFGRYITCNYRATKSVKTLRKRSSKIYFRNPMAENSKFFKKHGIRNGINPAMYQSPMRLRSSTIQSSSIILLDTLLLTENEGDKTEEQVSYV
T4 sequence (P21728 whole entry): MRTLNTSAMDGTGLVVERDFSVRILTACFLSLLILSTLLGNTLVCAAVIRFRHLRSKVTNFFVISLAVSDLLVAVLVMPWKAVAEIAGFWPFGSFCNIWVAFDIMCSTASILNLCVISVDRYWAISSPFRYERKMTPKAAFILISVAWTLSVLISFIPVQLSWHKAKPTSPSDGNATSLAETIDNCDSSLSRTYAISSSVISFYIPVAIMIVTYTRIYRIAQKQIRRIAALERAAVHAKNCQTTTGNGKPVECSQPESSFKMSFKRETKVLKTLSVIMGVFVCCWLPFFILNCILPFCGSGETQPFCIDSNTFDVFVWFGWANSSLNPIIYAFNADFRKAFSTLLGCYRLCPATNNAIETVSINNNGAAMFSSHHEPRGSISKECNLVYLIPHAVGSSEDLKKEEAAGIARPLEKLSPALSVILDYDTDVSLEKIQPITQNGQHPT
T5 sequence (P62813 whole entry): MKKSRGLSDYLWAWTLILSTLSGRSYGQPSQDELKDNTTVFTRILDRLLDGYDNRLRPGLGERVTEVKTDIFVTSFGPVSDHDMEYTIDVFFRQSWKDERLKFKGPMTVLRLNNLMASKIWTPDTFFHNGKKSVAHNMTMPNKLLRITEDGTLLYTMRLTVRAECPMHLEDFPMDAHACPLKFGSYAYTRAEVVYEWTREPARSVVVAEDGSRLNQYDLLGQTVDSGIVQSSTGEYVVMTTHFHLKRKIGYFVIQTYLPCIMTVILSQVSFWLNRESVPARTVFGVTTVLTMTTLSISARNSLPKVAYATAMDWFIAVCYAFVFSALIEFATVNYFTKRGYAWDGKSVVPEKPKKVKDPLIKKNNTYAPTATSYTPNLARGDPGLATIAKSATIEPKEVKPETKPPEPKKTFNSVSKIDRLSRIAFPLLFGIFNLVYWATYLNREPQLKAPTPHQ
T3 sequence (P21554 whole entry): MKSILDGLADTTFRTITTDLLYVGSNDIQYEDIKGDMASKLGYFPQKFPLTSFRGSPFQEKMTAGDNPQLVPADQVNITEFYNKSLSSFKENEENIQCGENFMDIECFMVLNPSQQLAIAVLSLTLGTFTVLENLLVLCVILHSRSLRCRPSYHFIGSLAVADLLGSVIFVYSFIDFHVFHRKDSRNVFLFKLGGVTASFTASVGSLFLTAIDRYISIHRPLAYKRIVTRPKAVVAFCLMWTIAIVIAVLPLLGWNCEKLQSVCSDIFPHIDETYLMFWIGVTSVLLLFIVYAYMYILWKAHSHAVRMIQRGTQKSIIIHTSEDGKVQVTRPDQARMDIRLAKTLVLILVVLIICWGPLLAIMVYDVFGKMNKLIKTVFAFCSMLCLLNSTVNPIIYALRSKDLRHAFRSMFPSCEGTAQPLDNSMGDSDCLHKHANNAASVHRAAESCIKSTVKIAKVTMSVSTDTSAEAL
T9 sequence (P35372 whole entry): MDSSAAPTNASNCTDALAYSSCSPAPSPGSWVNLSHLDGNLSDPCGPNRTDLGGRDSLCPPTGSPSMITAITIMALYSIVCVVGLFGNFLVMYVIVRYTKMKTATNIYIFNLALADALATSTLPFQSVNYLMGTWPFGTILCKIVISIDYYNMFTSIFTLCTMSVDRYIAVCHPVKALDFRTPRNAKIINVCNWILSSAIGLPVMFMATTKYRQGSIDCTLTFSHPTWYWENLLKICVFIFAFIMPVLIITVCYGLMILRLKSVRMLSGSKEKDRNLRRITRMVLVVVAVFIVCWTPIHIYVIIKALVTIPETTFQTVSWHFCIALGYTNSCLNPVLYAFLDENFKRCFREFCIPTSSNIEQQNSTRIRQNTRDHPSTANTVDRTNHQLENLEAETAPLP
T2 sequence (P07550 whole entry): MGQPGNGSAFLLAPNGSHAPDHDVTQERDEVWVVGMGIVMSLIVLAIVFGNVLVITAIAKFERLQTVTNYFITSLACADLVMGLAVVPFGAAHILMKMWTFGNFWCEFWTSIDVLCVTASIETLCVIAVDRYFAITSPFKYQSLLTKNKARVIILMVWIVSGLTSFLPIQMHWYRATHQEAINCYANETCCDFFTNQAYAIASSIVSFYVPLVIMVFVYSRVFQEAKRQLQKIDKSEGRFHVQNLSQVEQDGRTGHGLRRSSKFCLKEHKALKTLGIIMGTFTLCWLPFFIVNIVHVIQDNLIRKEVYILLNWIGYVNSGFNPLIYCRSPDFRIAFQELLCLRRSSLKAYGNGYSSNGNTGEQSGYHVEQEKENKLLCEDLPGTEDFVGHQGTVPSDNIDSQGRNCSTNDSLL
Sequence of Kappa-type opioid receptor (P41145 whole entry): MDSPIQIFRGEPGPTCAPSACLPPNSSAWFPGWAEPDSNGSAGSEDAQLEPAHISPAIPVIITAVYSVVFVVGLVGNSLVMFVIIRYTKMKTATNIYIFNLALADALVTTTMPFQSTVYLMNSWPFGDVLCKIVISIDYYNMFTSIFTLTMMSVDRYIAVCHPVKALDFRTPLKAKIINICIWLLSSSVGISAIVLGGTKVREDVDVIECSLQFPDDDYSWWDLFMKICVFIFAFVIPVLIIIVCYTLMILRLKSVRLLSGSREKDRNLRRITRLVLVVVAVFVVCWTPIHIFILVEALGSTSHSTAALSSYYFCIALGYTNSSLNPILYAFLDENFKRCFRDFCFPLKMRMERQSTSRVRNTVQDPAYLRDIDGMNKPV
Sequence of Histamine H2 receptor (P25021 whole entry): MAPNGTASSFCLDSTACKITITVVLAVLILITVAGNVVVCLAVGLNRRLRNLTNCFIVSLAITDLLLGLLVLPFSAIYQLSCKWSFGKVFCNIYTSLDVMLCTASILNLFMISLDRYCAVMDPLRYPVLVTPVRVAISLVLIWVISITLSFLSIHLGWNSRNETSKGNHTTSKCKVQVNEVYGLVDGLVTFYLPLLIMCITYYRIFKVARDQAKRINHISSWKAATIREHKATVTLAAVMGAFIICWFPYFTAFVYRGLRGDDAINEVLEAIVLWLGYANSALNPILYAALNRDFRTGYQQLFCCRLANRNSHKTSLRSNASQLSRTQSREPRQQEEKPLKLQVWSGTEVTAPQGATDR
Sequence of Histamine H3 receptor (Q9Y5N1 whole entry): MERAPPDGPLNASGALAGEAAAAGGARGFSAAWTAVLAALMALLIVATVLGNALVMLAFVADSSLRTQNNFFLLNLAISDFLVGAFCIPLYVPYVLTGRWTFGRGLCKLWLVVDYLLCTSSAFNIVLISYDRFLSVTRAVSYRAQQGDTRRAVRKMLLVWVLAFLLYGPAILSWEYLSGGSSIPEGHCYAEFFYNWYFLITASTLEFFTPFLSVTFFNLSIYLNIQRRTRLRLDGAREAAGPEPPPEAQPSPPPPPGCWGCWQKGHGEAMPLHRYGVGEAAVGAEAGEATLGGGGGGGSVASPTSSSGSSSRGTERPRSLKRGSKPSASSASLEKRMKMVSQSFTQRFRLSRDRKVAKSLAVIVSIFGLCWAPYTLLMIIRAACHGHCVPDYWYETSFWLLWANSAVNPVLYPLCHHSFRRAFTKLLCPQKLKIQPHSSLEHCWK
Sequence of Delta-type opioid receptor (P41143 whole entry): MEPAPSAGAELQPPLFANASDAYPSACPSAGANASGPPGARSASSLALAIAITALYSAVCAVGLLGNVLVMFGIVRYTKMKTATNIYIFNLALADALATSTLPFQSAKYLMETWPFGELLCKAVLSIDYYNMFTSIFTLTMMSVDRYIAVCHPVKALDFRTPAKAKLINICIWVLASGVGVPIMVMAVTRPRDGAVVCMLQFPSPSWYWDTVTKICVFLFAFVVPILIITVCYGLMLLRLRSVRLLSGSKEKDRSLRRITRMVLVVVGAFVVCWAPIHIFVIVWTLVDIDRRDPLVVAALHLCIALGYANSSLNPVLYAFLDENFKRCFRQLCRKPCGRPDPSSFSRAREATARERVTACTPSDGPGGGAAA
Sequence of Neuronal acetylcholine receptor subunit alpha-4 (P43681 whole entry): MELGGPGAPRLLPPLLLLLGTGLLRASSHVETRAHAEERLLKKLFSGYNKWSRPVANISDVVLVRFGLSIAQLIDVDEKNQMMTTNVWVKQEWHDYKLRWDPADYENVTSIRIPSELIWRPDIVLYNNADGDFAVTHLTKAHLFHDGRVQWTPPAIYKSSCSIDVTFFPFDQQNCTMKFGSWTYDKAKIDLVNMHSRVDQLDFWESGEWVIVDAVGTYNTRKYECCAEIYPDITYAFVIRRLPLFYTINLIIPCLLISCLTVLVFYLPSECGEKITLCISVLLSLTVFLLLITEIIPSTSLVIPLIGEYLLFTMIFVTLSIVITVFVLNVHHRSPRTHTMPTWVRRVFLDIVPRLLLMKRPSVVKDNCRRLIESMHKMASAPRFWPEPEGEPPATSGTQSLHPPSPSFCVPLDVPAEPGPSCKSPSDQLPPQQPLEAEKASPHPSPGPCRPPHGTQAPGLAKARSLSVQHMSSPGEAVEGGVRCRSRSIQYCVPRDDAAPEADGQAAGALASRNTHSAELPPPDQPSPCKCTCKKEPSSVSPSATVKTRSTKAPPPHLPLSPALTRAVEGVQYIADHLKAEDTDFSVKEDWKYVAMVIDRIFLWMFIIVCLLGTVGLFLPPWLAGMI

## CN1[C@@H]2CC[C@H]1C[C@@H](OC(c1ccccc1)c1ccccc1)C2 [BENZTROPINE]
[1]
  AC50: > 30 µM
[2]
  AC50: 0.078 µM
[3]
  AC50: > 30 µM
[4]
  AC50: > 30 µM
[5]
  AC50: > 10 µM
[6]
  AC50: > 30 µM
Cannabinoid receptor 1 [7]
  AC50: > 30 µM
Cannabinoid receptor 1 [8]
  AC50: > 10 µM
D(1A) dopamine receptor [9]
  AC50: > 30 µM
D(1A) dopamine receptor [10]
  AC50: 21 µM
[11]
  AC50: > 30 µM
[12]
  AC50: > 10 µM
[13]
  AC50: > 30 µM
[14]
  AC50: > 10 µM
Histamine H2 receptor
  AC50: > 30 µM
[15]
  AC50: > 30 µM
[16]
  AC50: > 30 µM
[17]
  AC50: > 30 µM
[18]
  AC50: 2.6 µM
[19]
  AC50: 0.137 µM
[20]
  AC50: 12.4 µM
[21]
  AC50: 11 µM
[22]
  AC50: 0.993 µM
Mu-type opioid receptor [23]
  AC50: 5.3 µM
Mu-type opioid receptor [24]
  AC50: 6.26 µM
[25]
  AC50: > 30 µM
D(3) dopamine receptor
  AC50: 2.83 µM
[26]
  AC50: 0.96 µM
Histamine H3 receptor
  AC50: > 30 µM
